The source of these data is patent US12533394B2, “Compositions and methods for treating metabolic disorders” (GlycoMantra Inc., priority 2023, dated 2026).

The IC50 is the concentration at which inhibition is half-maximal. Low values mean greater potency in that assay, high ones weaker potency in that assay.

Assay [1] concerns the target T1, Gal3 (Homo sapiens, UniProt P17931). The note with it: Table 1, comparison galectin antagonists; cited from earlier work.
The target of assay [2] is T1, Gal3. The assay is described as follows: Solid-phase assay, blocking Gal3 binding (inhibition curves, FIG. 2). An excerpt: For the purposes of this disclosure, an “inhibition curve” is a graphical representation used in pharmacology and biochemistry to show how an inhibitor affects the activity of an enzyme, a biological process, or the like. Typically, an inhibition curve plots the concentration of an inhibitor on the x-axis and the corresponding reduction in an enzyme activity (or another measurable response) on the y-axis. An inhibition curve may help visualize the relationship between inhibitor concentration and its effectiveness. As a nonlimiting example, an inhibition curve may be used to determine a half-maximal inhibitory concentration or IC50 value. For the purposes of this disclosure, half-maximal inhibitory concentration or IC50 is the concentration of an inhibitor needed to reduce the activity of a receptor or an enzyme by 50%. A small IC50 value typically indicates a stronger binding affinity between an inhibitor and its target, and vice versa. IC50 is a commonly used indication regarding a drug's efficacy and potency and is often used in pharmacological research. For the purposes of this disclosure, drug potency is the amount of a drug needed to produce a given effect. […] It is often measured using the EC50, i.e., the concentration at which 50% of the maximum effect is observed. […]

Structures are written as SMILES.

T1 sequence (P17931 whole entry, species assumed): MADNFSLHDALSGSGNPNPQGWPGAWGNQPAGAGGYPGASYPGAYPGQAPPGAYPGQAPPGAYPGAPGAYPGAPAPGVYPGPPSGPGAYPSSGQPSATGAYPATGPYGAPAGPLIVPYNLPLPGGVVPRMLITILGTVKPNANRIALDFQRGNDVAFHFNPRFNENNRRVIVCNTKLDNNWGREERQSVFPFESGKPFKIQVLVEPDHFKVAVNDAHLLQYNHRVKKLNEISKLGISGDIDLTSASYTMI

As to `OC[C@H]1O[C@@H](S[C@@H]2O[C@H](CO)[C@H](O)[C@H](n3cc(-c4cccc(F)c4)nn3)[C@H]2O)[C@H](O)[C@@H](n2cc(-c3cccc(F)c3)nn2)[C@H]1O` [TD139], the “Specificity to Gal3” value on Gal3 [1] was “No”. As for `CC(=O)N[C@H]1C(O)O[C@H](CO)[C@H](O)[C@@H]1O[C@@H]1O[C@H](CO)[C@H](O)[C@H](O)[C@H]1O` (some centres unmarked) [synthetic TFD, Galβ1-3GalNAc], at Gal3 [2], the IC50 amounted to 200 µM.
